Measured values taken from ChEMBL document CHEMBL1130733, “Synthesis and structure-activity relationships of pyridine-modified analogs of 3-[2-((S)-pyrrolidinyl)methoxy]pyridine, A-84543, a potent nicotinic acetylcholine receptor agonist” (Bioorg Med Chem Lett, 1998).

Key:
[1] = molecular target: Neuronal acetylcholine receptor; alpha4/beta2 (Rattus norvegicus, UniProt P09483+P12390); assay: Binding affinity towards nAChR (alpha4-beta2) by the displacement of [3H](-)-cytisine in whole rat brain membranes.; type: cell membranes
Chain of Neuronal acetylcholine receptor; alpha4/beta2 (Rattus norvegicus, UniProt P09483+P12390) (P09483 whole entry): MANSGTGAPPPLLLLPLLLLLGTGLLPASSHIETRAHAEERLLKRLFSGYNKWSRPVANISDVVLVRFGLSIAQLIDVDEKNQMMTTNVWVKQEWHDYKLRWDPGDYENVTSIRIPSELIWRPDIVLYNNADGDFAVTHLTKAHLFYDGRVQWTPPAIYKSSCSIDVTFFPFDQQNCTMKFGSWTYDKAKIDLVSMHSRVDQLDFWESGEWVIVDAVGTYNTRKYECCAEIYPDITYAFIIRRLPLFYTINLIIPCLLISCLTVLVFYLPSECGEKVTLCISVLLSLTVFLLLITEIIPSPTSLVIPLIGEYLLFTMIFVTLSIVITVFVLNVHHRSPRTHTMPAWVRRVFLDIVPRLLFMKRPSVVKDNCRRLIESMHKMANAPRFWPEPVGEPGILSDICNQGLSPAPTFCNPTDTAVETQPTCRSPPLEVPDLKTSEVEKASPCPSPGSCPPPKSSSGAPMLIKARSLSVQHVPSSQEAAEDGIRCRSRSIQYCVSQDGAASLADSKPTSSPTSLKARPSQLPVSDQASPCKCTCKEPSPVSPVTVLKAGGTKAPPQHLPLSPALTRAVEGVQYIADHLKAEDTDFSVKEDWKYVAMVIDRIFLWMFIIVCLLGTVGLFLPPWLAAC
Chain of Neuronal acetylcholine receptor; alpha4/beta2 (Rattus norvegicus, UniProt P09483+P12390) (P12390 whole entry): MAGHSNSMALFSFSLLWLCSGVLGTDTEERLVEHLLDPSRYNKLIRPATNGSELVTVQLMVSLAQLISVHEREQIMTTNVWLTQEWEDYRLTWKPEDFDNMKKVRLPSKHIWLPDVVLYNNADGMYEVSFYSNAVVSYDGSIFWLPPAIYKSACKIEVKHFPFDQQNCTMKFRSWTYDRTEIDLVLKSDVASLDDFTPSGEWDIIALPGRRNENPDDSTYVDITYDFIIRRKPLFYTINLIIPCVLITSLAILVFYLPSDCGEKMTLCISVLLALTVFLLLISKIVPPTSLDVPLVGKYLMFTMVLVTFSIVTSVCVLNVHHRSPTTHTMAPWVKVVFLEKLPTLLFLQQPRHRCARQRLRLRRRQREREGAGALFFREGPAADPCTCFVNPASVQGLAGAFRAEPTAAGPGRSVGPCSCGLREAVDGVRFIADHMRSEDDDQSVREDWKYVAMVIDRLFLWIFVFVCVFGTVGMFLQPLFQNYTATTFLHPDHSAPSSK

[2] = molecular target: T1, Neuronal acetylcholine receptor; alpha4/beta2 (Homo sapiens, UniProt P17787+P43681); details: IMR-32
T1 sequence (P17787 whole entry): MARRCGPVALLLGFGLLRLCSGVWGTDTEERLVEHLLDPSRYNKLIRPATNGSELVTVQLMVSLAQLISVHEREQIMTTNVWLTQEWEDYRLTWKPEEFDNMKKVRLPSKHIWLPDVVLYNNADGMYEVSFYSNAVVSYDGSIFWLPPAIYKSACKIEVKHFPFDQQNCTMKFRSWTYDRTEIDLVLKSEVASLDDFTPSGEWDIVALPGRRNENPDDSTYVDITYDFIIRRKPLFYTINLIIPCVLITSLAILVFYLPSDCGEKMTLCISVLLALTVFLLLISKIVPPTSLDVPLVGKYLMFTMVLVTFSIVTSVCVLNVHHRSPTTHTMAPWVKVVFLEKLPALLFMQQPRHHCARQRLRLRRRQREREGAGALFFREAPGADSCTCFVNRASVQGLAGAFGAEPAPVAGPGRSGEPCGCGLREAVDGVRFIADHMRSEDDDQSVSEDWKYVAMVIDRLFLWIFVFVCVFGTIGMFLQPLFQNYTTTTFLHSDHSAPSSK
T1 sequence (P43681 whole entry): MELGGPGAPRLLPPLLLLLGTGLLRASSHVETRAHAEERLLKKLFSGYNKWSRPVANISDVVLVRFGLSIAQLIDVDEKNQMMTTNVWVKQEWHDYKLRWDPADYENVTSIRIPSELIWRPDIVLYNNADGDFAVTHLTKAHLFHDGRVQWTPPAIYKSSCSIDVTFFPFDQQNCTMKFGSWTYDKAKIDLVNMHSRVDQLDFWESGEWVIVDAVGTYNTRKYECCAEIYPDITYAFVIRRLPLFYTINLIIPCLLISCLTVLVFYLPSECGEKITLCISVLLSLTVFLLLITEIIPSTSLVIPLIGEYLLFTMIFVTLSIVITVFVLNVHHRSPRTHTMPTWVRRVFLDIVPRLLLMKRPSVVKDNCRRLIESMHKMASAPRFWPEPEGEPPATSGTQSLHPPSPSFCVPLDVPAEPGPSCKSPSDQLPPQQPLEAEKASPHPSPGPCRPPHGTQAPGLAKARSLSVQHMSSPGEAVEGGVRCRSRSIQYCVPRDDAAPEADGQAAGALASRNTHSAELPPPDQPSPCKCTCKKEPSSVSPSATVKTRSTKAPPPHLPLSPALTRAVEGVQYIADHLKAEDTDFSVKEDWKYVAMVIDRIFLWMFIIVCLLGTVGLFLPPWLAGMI
Description: Maximal efficacy in nAChR subtype human alpha3betaX, expressed in IMR-32 cells

[3] = molecular target: T1, Neuronal acetylcholine receptor; alpha4/beta2; details: K177
Description: Maximal efficacy in human nAChR alpha4-beta2 expressing K177 cells

[4] = molecular target: Nicotinic acetylcholine receptor alpha3/betaX; assay: Stimulation of cation efflux in Nicotinic acetylcholine receptor alpha3-betaX subtype expressing IMR-32 cells; type: functional, cell-based, Homo sapiens
[5] = molecular target: T1, Neuronal acetylcholine receptor; alpha4/beta2; assay: Maximal efficacy relative to 100 uM nicotine in human nAChR alpha4-beta2 expressing K177 cells; type: cell-based
[6] = molecular target: T1, Neuronal acetylcholine receptor; alpha4/beta2; assay: Stimulation of cation efflux in human nAChR alpha4-beta2 expressing K177 cells; type: cell-based
[7] = molecular target: T1, Neuronal acetylcholine receptor; alpha4/beta2; assay: Inhibition of cation efflux in human nAChR alpha4-beta2 expressing K177 cells; type: cell-based
[8] = molecular target: Nicotinic acetylcholine receptor alpha3/betaX (Homo sapiens) (UniProt P11230+P17787+P30926+P32297+Q05901); assay: Maximal efficacy relative to 100 uM nicotine in Nicotinic acetylcholine receptor alpha3-betaX subtype expressing IMR-32 cells; type: cell-based

| SMILES | Ki [1] | EC50 [4] | Max [5] | EC50 [6] | further results |
| --- | --- | --- | --- | --- | --- |
| CN1CCC[C@H]1COc1cc(Br)c[n+]([O-])c1 | 34.8 nM | – | – | – | – |
| CN1CCC[C@H]1COc1cncc(C(F)(F)F)c1 | 1.83 nM | – | – | – | – |
| CN1CCC[C@H]1COc1cccnc1[N+](=O)[O-] | 9000 nM | – | – | – | – |
| CSc1ncccc1OC[C@@H]1CCCN1C | 559 nM | – | – | – | – |
| CN1CCC[C@H]1c1cccnc1 | – | – | – | – | Max [2]: 100%; Max [3]: 100% |
| CN1CCC[C@H]1COc1cccnc1Br | 451 nM | > 1000 µM | 12.3% | > 1000 µM | – |
| CN1CCC[C@H]1COc1ccc(Br)nc1 | 1.91 nM | > 1000 µM | 42.5% | 2.6 µM | – |
| CN1CCC[C@H]1COc1ccc(F)nc1 | 2.56 nM | – | – | – | – |
| CCN(CC)C(=O)c1ccncc1OC[C@@H]1CCCN1C | 2830 nM | – | – | – | – |
| CCCc1cncc(OC[C@@H]2CCCN2C)c1 | 0.12 nM | > 1000 µM | 13% | > 1000 µM | IC50 [7]: 2400 nM |
| CCc1cncc(OC[C@@H]2CCCN2C)c1 | 0.32 nM | > 1000 µM | 33.7% | 1 µM | – |
| CCNc1cncc(OC[C@@H]2CCCN2C)c1 | 3.7 nM | – | – | – | – |
| CN1CCC[C@H]1COc1cncc(Cl)c1 | 0.6 nM | – | – | – | – |
| CN1CCC[C@H]1COc1ccc(CO)nc1 | 97.4 nM | – | – | – | – |
| CC(C)Cc1cncc(OC[C@@H]2CCCN2C)c1 | 0.21 nM | – | – | – | – |
| CN1CCC[C@H]1COc1cccnc1 | 0.15 nM | 19.4 µM | 100% | – | Max [8]: 73.2% |
| CN1CCC[C@H]1COc1cncc(N)c1 | 0.63 nM | – | – | – | – |
| Cc1ccncc1OC[C@@H]1CCCN1C | 4.12 nM | > 1000 µM | 73.9% | 2.1 µM | – |
| CN1CCC[C@H]1COc1cccnc1I | 606 nM | – | – | – | – |
| Cc1ccc(OC[C@@H]2CCCN2C)cn1 | 1.26 nM | 13.4 µM | 54.4% | 2.2 µM | – |
| Cc1cncc(OC[C@@H]2CCCN2C)c1 | 0.48 nM | 2.9 µM | 77% | 2.3 µM | – |
| CCCCc1cncc(OC[C@@H]2CCCN2C)c1 | 0.16 nM | > 1000 µM | 14% | > 1000 µM | IC50 [7]: 640 nM |
| CN1CCC[C@H]1COc1ccc(Cl)nc1 | 0.64 nM | 27.1 µM | 108% | 1.4 µM | – |
| CN1CCC[C@H]1COc1cncc(Br)c1 | 0.27 nM | – | 41.8% | 5.95 µM | – |
| Cc1ncccc1OC[C@@H]1CCCN1C | 22.9 nM | 18.2 µM | 26.7% | 4.8 µM | Max [8]: 27.7% |
| CN1CCC[C@H]1COc1cnccc1Br | 28 nM | > 1000 µM | 14.1% | > 1000 µM | – |
| CN1CCC[C@H]1COc1cncc(F)c1 | 0.69 nM | – | – | – | – |
| CN1CCC[C@H]1COc1cncc([N+](=O)[O-])c1 | 4.65 nM | – | – | – | – |
| CCCCCCc1cncc(OC[C@@H]2CCCN2C)c1 | 0.32 nM | – | – | – | – |
